A short description of this series: Particle size distribution in a dry dispersion (Sympatec Helos, method AM-PE 69). The class given is physicochemical. Conditions: cumulative undersize distribution by volume. Here is the method: It turned out that the crystalline form of N-cyclopropyl-4-{6-(2,3-difluor-4-methoxyphenoxy)-8-[(3,3,3-trifluorpropyl)amino]imidazo[1,2-b]pyridazin-3-yl}-2-methylbenzamide prepared by the method of the present invention comprising steps (a) to (g), supra, is characterized by an advantageous particle size distribution. […] The particle size distribution was determined in a dry dispersion using the device “Sympatec Helos” and the method “AM-PE 69” (Pharmdoss).
Batch Nos. 1 to 5 were prepared by the method of the present invention comprising steps (a) to (c), supra. In case of Batch Nos. 2 to 5, the preparation method comprised the additional steps (d) to (g) (in case of Batch No. 1 steps (d) to (g) were not applied).
It can be clearly seen that the particles of Batch Nos. 2 to 5 are smaller than the particles of Batch No. 1 and the distribution is more uniform. In case of Batch Nos. 2 to 5, further micronization of the particles might not be necessary in order to increase the solubility or bioavailability of the final drug.

Where [1] appears, read: listed as 4, prepared with steps (d) to (g).
Where [2] appears, read: listed as 5, prepared with steps (d) to (g).
[3] abbreviates: listed as 2, prepared with steps (d) to (g).
Where [4] appears, read: prepared without steps (d) to (g).

Regarding `COc1ccc(Oc2cc(Oc3ccc(OC)c(F)c3F)c3ncc(-c4ccc(C(=O)NC5CC5)c(C)c4)n3n2)c(F)c1F` [Example 3, 4-[6,8-bis(2,3-difluoro-4-methoxyphenoxy)imidazo[1,2-b]pyridazin-3-yl]-N-cyclopropyl-2-methylbenzamide], under setting [1], the “X10 (particle size distribution)” value came out at 1.3 μm, the “X50 (particle size distribution)” value came to 4.2 μm and the “X90 (particle size distribution)” value was 13.2 μm. Also, under setting [2], the “X10 (particle size distribution)” value came out at 1.2 μm, the “X50 (particle size distribution)” value stood at 4.0 μm and the “X90 (particle size distribution)” value was 12.4 μm. Moreover, for the setting “prepared with steps (d) to (g)”, the “X10 (particle size distribution)” value is reported as 1.2 μm, the “X50 (particle size distribution)” value turned out to be 4.1 μm and the “X90 (particle size distribution)” value was 9.9 μm.

With “6,8-Bis(2,3-difluoro-4-methoxyphenoxy)-3-iodoimidazo[1,2-b]pyridazine [Example 1]”, under setting [3], the “X10 (particle size distribution)” value was found to be 1.4 μm, the “X50 (particle size distribution)” value is 5.3 μm and the “X90 (particle size distribution)” value stood at 36.1 μm. For the same compound, under setting [4], the “X10 (particle size distribution)” value is 2.0 μm, the “X50 (particle size distribution)” value was found to be 18.2 μm and the “X90 (particle size distribution)” value is listed as 249.0 μm.

The record behind these values is patent US20170305912A1, “PROCESS FOR THE PREPARATION OF 3-PHENYL/HETEROARYL-6-PHENOXY-8-ALKYLAMINO-IMIDAZO[1,2-B]PYRIDAZINE DERIVATIVES” (Bayer Pharma Aktiengesellschaft, priority 2014, published 2017).
